Results as given in ChEMBL document CHEMBL5506048, “Modular Biomimetic Strategy Enables Discovery and SAR Exploration of Oxime Macrocycles as Influenza A Virus (H1N1) Inhibitors” (J Med Chem, 2024).
Activity calls are given as the source filed them. The rule behind the calls is not given here.

Columns and labels:
[1] = AUC (0 to infinity) in ICR (CD-1) mouse at 2 mg/kg, iv measured upto 24 hrs by LC-MS/MS analysis; type: ADME, organism-based; conditions: in vivo
[2] = Stability of the compound in pH 7.4 PBS buffer assessed as compound remaining measured after 24 hrs by LC-MS/MS analysis; type: physicochemical; conditions: read-out: Stability
[3] = AUC (0 to infinity) in ICR (CD-1) mouse at 10 mg/kg, po measured upto 24 hrs by LC-MS/MS analysis; type: ADME, organism-based; conditions: in vivo
Influenza B virus = assay: Antiviral activity against Influenza virus Flu B (B/Taiwan/2/62) infected in human Calu-3 cells assessed as viral RNA measured after 3 days by one-time real time PCR assay; type: functional, organism-based; conditions: B/Taiwan/2/62, Calu-3, 72 h
Influenza A virus [4] = assay: Synergistic antiviral activity against Influenza virus H1N1 A/Puerto Rico/8/34 (A/PR/8/34) infected in human Calu-3 cells assessed as combination index of 50% inhibition at 0.98 nM in presence of 172 nM oseltamivir acid; type: functional
Influenza A virus [5] = assay: Synergistic antiviral activity against Influenza virus H1N1 A/Puerto Rico/8/34 (A/PR/8/34) infected in human Calu-3 cells assessed as combination index of 50% inhibition at 0.24 nM in presence of 170 nM oseltamivir acid; type: functional
[6] = Selectivity index, ratio of CC50 for human Calu-3 cells to EC50 for antiviral activity against Influenza virus HINI A/Puerto Rico/8/34 (A/PR/8/34); type: toxicity; conditions: read-out: Selectivity Index
Influenza A virus [7] = assay: Antiviral activity against HIV pseudotyped H5N1 HA infected in human 293T cells assessed as inhibition of viral entry into cells by measuring intensity of chemiluminescence measured after 3 days by Bright-Glo luciferase assay; type: functional, organism-based; conditions: HEK293T, time 3.0 day
[8] = Clearance in ICR (CD-1) mouse at 2 mg/kg, iv measured upto 24 hrs by LC-MS/MS analysis; type: ADME, organism-based; conditions: in vivo
Influenza A virus [9] = assay: Antiviral activity against Influenza virus H1N1 A/Puerto Rico/8/34 (A/PR/8/34) 2.5TCID50 infected in human Calu-3 cells assessed as reduction in virus-induced cytopathic effect by measuring sloughing at 0.0156 to 37 uM measured after 3 days by immunofluorescence assay; type: functional, organism-based; conditions: dose 0.0156-37 µM, time 3.0 day
Influenza A virus [10] = assay: Antiviral activity against Influenza virus H1N1 A/Puerto Rico/8/34 (A/PR/8/34) 2.5TCID50 infected in human Calu-3 cells assessed as reduction in virus-induced cytopathic effect by measuring degeneration at 0.0156 to 37 uM measured after 3 days by immunofluorescence assay; type: functional, organism-based; conditions: dose 0.0156-37 µM, time 3.0 day
Influenza A virus [11] = assay: Antiviral activity against Influenza virus H3N2 (A/Hong Kong/8/68) infected in human Calu-3 cells assessed as viral RNA measured after 3 days by one-time real time PCR assay; type: functional, organism-based; conditions: Calu-3, 72 h
[12] = Volume of distribution in ICR (CD-1) mouse at 2 mg/kg, iv measured upto 24 hrs by LC-MS/MS analysis; type: ADME, organism-based; conditions: in vivo
Influenza A virus [13] = assay: Synergistic antiviral activity against Influenza virus H1N1 A/Puerto Rico/8/34 (A/PR/8/34) infected in human Calu-3 cells assessed as combination index of 50% inhibition at 3.91 nM in presence of 83.1 nM oseltamivir acid; type: functional
[14] = Stability of the compound in RPMI 1640 cell culture medium containing 10% fetal bovine serum assessed as compound remaining measured after 24 hrs by LC-MS/MS analysis; type: physicochemical, cell-free; conditions: cattle, read-out: Stability
Influenza A virus [15] = assay: Synergistic antiviral activity against Influenza virus H1N1 A/Puerto Rico/8/34 (A/PR/8/34) infected in human Calu-3 cells assessed as combination index of 50% inhibition at 2.61 nM in presence of 62.5 nM oseltamivir acid; type: functional
Influenza A virus [16] = assay: Synergistic antiviral activity against Influenza virus H1N1 A/Puerto Rico/8/34 (A/PR/8/34) infected in human Calu-3 cells assessed as combination index of 50% inhibition at 15.6 nM in presence of 31 nM oseltamivir acid; type: functional
Influenza A virus [17] = assay: Antiviral activity against Influenza virus H1N1 A/Puerto Rico/8/34 (A/PR/8/34) 2.5TCID50 infected in human Calu-3 cells assessed as reduction in virus-induced cytopathic effect by measuring cell rounding at 0.0156 to 37 uM measured after 3 days by immunofluorescence assay; type: functional, organism-based; conditions: dose 0.0156-37 µM, time 3.0 day
Ebolavirus = assay: Antiviral activity against HIV pseudotyped EBOV GP infected in human 293T cells assessed as inhibition of viral entry into cells by measuring intensity of chemiluminescence measured after 3 days by Bright-Glo luciferase assay; type: functional, organism-based; conditions: HEK293T, time 3.0 day
[18] = Half life in ICR (CD-1) mouse at 2 mg/kg, iv measured upto 24 hrs by LC-MS/MS analysis; type: ADME, organism-based; conditions: in vivo
Influenza A virus [19] = assay: Synergistic antiviral activity against Influenza virus H1N1 A/Puerto Rico/8/34 (A/PR/8/34) infected in human Calu-3 cells assessed as combination index of 50% inhibition at 0.06 nM in presence of 450 nM oseltamivir acid; type: functional
Influenza A virus [20] = assay: Antiviral activity against Influenza virus H1N1 A/Puerto Rico/8/34 (A/PR/8/34) infected in human Calu-3 cells assessed as viral RNA measured after 3 days by one-time real time PCR assay; type: functional, organism-based; conditions: Calu-3, 72 h
[21] = Tmax in ICR (CD-1) mouse at 10 mg/kg, po measured upto 24 hrs by LC-MS/MS analysis; type: ADME, organism-based; conditions: in vivo
Influenza A virus [22] = assay: Synergistic antiviral activity against Influenza virus H1N1 A/Puerto Rico/8/34 (A/PR/8/34) infected in human Calu-3 cells assessed as combination index of 50% inhibition at 28.3 nM in presence of 3.91 nM oseltamivir acid; type: functional
[23] = Half life in ICR (CD-1) mouse at 10 mg/kg, po measured upto 24 hrs by LC-MS/MS analysis; type: ADME, organism-based; conditions: in vivo
Influenza A virus [24] = assay: Antiviral activity against Influenza virus HIN1 (A/California/07/2009 pdm09) infected in human Calu-3 cells assessed as viral RNA measured after 3 days by one-time real time PCR assay; type: functional, organism-based; conditions: Calu-3, 72 h
Calu-3 = assay: Cytotoxicity against human Calu-3 cells assessed as cell viability measured after 3 days by CellTiter-Lumi Steady Plus Luminescent Cell Viability Assay Kit; type: functional; conditions: Calu-3, 72 h, time 3 day
[25] = Oral bioavailability in ICR (CD-1) mouse at 10 mg/kg measured upto 24 hrs by LC-MS/MS analysis; type: ADME, organism-based; conditions: in vivo
[26] = Cmax in ICR (CD-1) mouse at 10 mg/kg, po measured upto 24 hrs by LC-MS/MS analysis; type: ADME, organism-based; conditions: in vivo

C=C1Cc2cc(C(F)(F)F)ccc2C(=O)NCC2(CCC2)/C(=N/OC)CCCOC1=O
AUC(0-inf) [1]: 222 ng·h/mL | remaining at 24 h [2]: > 90% | AUC(0-inf) [3]: 2.65 ng·h/mL | EC50 (Influenza B virus): > 50000 nM | CI50 (Influenza A virus [4]): 0.35 | CI50 (Influenza A virus [5]): 0.32 | selectivity ratio [6]: > 4350 | Activity (Influenza A virus [7]): inactive | clearance [8]: 151 mL/min/kg | Activity (Influenza A virus [9]): Active | Activity (Influenza A virus [10]): Active | EC50 (Influenza A virus [11]): > 50000 nM | Vd [12]: 3.12 L/kg | CI50 (Influenza A virus [13]): 0.28 | remaining at 24 h [14]: > 90% | CI50 (Influenza A virus [15]): 0.2 | CI50 (Influenza A virus [16]): 0.57 | Activity (Influenza A virus [17]): Active | Activity (Ebolavirus): inactive | half-life [18]: 24.6 min | CI50 (Influenza A virus [19]): 0.84 | EC50 (Influenza A virus [20]): 23 nM | EC90 (Influenza A virus [20]; time 3 day): 142 nM | Tmax [21]: 15 min | CI50 (Influenza A virus [22]): 0.93 | half-life [23]: 39 min | EC50 (Influenza A virus [24]): 62 nM | CC50 (Calu-3): > 100000 nM | bioavailability [25]: 0.12% | Cmax [26]: 2.42 ng/mL
